Data as given in patent US7528126B2, “Pyrrolobenzodiazepines” (Spirogen Limited, priority 2004, dated 2009).
Converted amounts (≈) assume the structure as drawn.

What was measured:
Streptococcus pyogenes = assay: Antimicrobial susceptibility test (disc diffusion), Streptococcus pyogenes; assay type: cell-based; details: dash = none; for Sensitive %: share of Streptococcus pyogenes strains classed sensitive
Method: (§1) Several bacterial colonies were transferred from the agar plates to bijoux containing MHB. The suspension is incubated at 35° C. and subsequently diluted down in sterile saline to match the density of a McFarland standard solution. A sterile cotton swab is then dipped in the bacterial inoculum and pressed against the bijou walls to remove any excess solution. MHA plates are then thoroughly streaked with the swab three times, turning the plate 60° each time. The discs are placed onto the inoculated plate within 15 minutes. The positions of the discs should allow enough space (≈24 mm) around each individual disc in order to measure the diffusion diameter at a later stage. The plates were incubated immediately at 35° C. for 16-18 hours for all organisms excluding VRE, and MRSA, which require a 24-hour incubation. The experiment was valid if there was a confluent bacterial growth, not single colonies, and circular inhibition zones were evident. Clear zones produced around the disc were measured with a ruler and interpreted according to the tables provided by the NCCLS. Bacteria were classified as sensitive, intermediate or resistant.

Listeria monocytogenes = assay: Antimicrobial susceptibility test (disc diffusion), Listeria monocytogenes; assay type: cell-based; details: dash = none; for Sensitive %: share of Listeria monocytogenes strains classed sensitive; for Resistant %: share of Listeria monocytogenes strains classed resistant
Method: as §1

Streptococcus agalactiae = assay: Antimicrobial susceptibility test (disc diffusion), Streptococcus agalactiae; assay type: cell-based; details: dash = none; for Resistant %: share of Streptococcus agalactiae strains classed resistant; for Sensitive %: share of Streptococcus agalactiae strains classed sensitive
Method: as §1

MRSA [1] = assay: Antimicrobial susceptibility test (disc diffusion), MRSA; assay type: cell-based, methicillin resistant Staphylococcus aureus; details: for Resistant %: share of MRSA strains classed resistant; for Sensitive %: share of MRSA strains classed sensitive
Method: as §1

VRE = assay: Antimicrobial susceptibility test (disc diffusion), VRE; assay type: cell-based, vancomycin resistant enterococci; details: dash = none; for Resistant %: share of VRE strains classed resistant; for Sensitive %: share of VRE strains classed sensitive
Method: as §1

MRSA [2] = details: literature values for comparison; cited from earlier work
[3] = tested on: K562 human chronic myeloid leukaemia cells; details: value quoted for comparison; read-out: IC50 quoted in WO 93/18045; cited from earlier work

Q: Which Sensitive % (Streptococcus pyogenes) does the source give for Gentamicin here?
A: 100%

Q: And the Sensitive % (Listeria monocytogenes)?
A: 100%

Q: And the Resistant % (Streptococcus agalactiae)?
A: 100%

Q: What about the Intermediate % (MRSA [1]; share of MRSA strains classed intermediate, dash = none) of the same compound?
A: 8%

Q: What about the Resistant % (MRSA [1]; dash = none) of the same compound?
A: 70%

Q: And the Sensitive % (MRSA [1]; dash = none)?
A: 22%

Q: And the Resistant % (VRE)?
A: 80%

Q: And the Sensitive % (VRE)?
A: 20%

Q: For `CC(=O)NC[C@H]1CN(c2ccc(N3CCOCC3)c(F)c2)C(=O)O1` [linezolid], which “MIC in MRSA” value (MRSA [2]) is on record?
A: ~1 mg/L (≈ 2.96 µM)

Q: Which Sensitive % (Streptococcus pyogenes) does the source give for `CN(C)[C@@H]1C(O)=C(C(N)=O)C(=O)[C@@]2(O)C(O)=C3C(=O)c4c(O)cccc4[C@@](C)(O)[C@H]3C[C@@H]12` [Tetracycline] here?
A: 100%

Q: What about the Sensitive % (Listeria monocytogenes) of the same compound?
A: 100%

Q: What about the Resistant % (Streptococcus agalactiae) of the same compound?
A: 90%

Q: And the Sensitive % (Streptococcus agalactiae)?
A: 10%

Q: And the Resistant % (VRE)?
A: 60%

Q: And the Sensitive % (VRE)?
A: 40%

Q: With `NCC[C@H](O)C(=O)N[C@@H]1C[C@H](N)[C@@H](O[C@H]2O[C@H](CN)[C@@H](O)[C@H](O)[C@H]2O)[C@H](O)[C@H]1O[C@H]1O[C@H](CO)[C@@H](O)[C@H](N)[C@H]1O` [Amikacin] as the compound, how does the Resistant % (Streptococcus pyogenes; share of Streptococcus pyogenes strains classed resistant) read?
A: 100%

Q: And the Sensitive % (Listeria monocytogenes)?
A: 100%

Q: What about the Resistant % (Streptococcus agalactiae) of the same compound?
A: 100%

Q: With `CC[C@H]1OC(=O)[C@H](C)[C@@H](O[C@H]2C[C@@](C)(OC)[C@@H](O)[C@H](C)O2)[C@H](C)[C@@H](O[C@@H]2O[C@H](C)C[C@H](N(C)C)[C@H]2O)[C@](C)(O)C[C@@H](C)C(=O)[C@H](C)[C@@H](O)[C@]1(C)O` [Erythromycin] as the compound, how does the Sensitive % (Streptococcus pyogenes) read?
A: 100%

Q: What about the Sensitive % (Listeria monocytogenes) of the same compound?
A: 100%

Q: What about the Sensitive % (Streptococcus agalactiae) of the same compound?
A: 100%

Q: What about the Resistant % (VRE) of the same compound?
A: 90%

Q: And the Sensitive % (VRE)?
A: 10%

Q: Which Sensitive % (Streptococcus pyogenes) does the source give for `CO[C@H]1/C=C/O[C@@]2(C)Oc3c(C)c(O)c4c(O)c(c(/C=N/N5CCN(C)CC5)c(O)c4c3C2=O)NC(=O)/C(C)=C\C=C\[C@H](C)[C@H](O)[C@@H](C)[C@@H](O)[C@@H](C)[C@H](OC(C)=O)[C@@H]1C` [Rifampicin] here?
A: 100%

Q: What about the Sensitive % (Listeria monocytogenes) of the same compound?
A: 100%

Q: And the Sensitive % (Streptococcus agalactiae)?
A: 100%

Q: Which Sensitive % (Streptococcus pyogenes) does the source give for `Cc1onc(-c2ccccc2)c1C(=O)N[C@@H]1C(=O)N2[C@@H]1SC(C)(C)[C@@H]2C(=O)O` [Oxacillin] here?
A: 100%

Q: What about the Resistant % (Listeria monocytogenes) of the same compound?
A: 100%

Q: And the Sensitive % (Streptococcus agalactiae)?
A: 100%

Q: What about the Resistant % (VRE) of the same compound?
A: 100%

Q: With synercid as the compound, how does the “MIC in MRSA” value (MRSA [2]) read?
A: ~0.5 mg/L

Q: Which results are given for `CCC[C@@H]1C[C@@H](C(=O)N[C@@H]([C@H]2O[C@H](SC)[C@H](O)[C@@H](O)[C@H]2O)[C@H](C)Cl)N(C)C1` [Clindamycin]?
A: Sensitive % (Streptococcus pyogenes): 100%; Resistant % (Listeria monocytogenes): 100%; Sensitive % (Streptococcus agalactiae): 100%; Resistant % (VRE): 85%; Sensitive % (VRE): 15%

Q: For `CN[C@H](CC(C)C)C(=O)N[C@H]1C(=O)N[C@@H](CC(N)=O)C(=O)N[C@H]2C(=O)N[C@H]3C(=O)N[C@H](C(=O)N[C@H](C(=O)O)c4cc(O)cc(O)c4-c4cc3ccc4O)[C@H](O)c3ccc(c(Cl)c3)Oc3cc2cc(c3O[C@@H]2O[C@H](CO)[C@@H](O)[C@H](O)[C@H]2O[C@H]2C[C@](C)(N)[C@H](O)[C@H](C)O2)Oc2ccc(cc2Cl)[C@H]1O` [Vancomycin], which Sensitive % (Streptococcus pyogenes) is on record?
A: 100%

Q: And the Sensitive % (Listeria monocytogenes)?
A: 100%

Q: What about the “MIC in MRSA” value (MRSA [2]) of the same compound?
A: about 2 mg/L

Q: What about the Sensitive % (Streptococcus agalactiae) of the same compound?
A: 100%

Q: And the “susceptibility of all MRSA strains used” value (MRSA [1]; in words, summary of Table 4)?
A: completely susceptible

Q: And the Resistant % (VRE)?
A: 100%

Q: Which results are given for `COc1cc(Cc2cnc(N)nc2N)cc(OC)c1OC` [Trimethophrim]?
A: Sensitive % (Streptococcus pyogenes): 100%; Sensitive % (Listeria monocytogenes): 100%; Sensitive % (Streptococcus agalactiae): 100%; Resistant % (MRSA [1]; dash = none): 32%; Sensitive % (MRSA [1]; dash = none): 68%; Resistant % (VRE): 75%; Sensitive % (VRE): 25%

Q: With `CC=C1C[C@H]2C=Nc3cc(OCCCOc4cc5c(cc4OC)C(=O)N4CC(=CC)C[C@H]4C=N5)c(OC)cc3C(=O)N2C1` [Example 6 in WO 93/18045] as the compound, how does the IC50 [3] read?
A: 10 nM
